Test results published in a melting point compilation (Tetko et al.; mined from patent text by program, amines drawn as free bases though some values may be those of a salt).

melting point | Compound
211 to 213 °C | COCC#Cc1cc(OC)c2ncc(C(=O)NCc3ccc(Cl)cc3)c(O)c2c1
212 to 215 °C | CC(C)n1nc(-c2cc(C(=O)O)c(=O)[nH]c2-c2ccccc2)ccc1=O
206 to 208 °C | Cc1nc(-c2cccc(C(F)(F)F)c2)c2nc(-c3ccccc3)cc-2[nH]1
192 to 193 °C | CC(C)(C)OC(=O)OCC(COC(=O)OC(C)(C)C)OCn1cnc2c(=O)[nH]c(N)nc21
254 to 256 °C | S=c1[nH]nc(-c2ccc3ccccc3c2)s1
104 to 107 °C | O=C1C(=O)c2ccccc2C2=C1SCC1(CCN(Cc3ccc(F)cc3F)CC1)O2
165 °C | CCn1cnc2c(Nc3cccc(Cl)c3)nc(N3CCCC(N)C3)nc21 (configuration not stated)
188 to 190 °C | C[C@H]1[C@@H]2C(=O)N(Cc3ccccc3)C(=O)[C@@H]2[C@H](c2ccc(C#N)cc2)N1C (racemic)
256 to 260 °C | O=c1[nH]c2cc(F)ccc2n1-c1cc(Cl)ccc1O
188 to 190 °C | CC1=C2c3c(cnc4cc(Cl)ccc34)NC2C(C)CN1 (configuration not stated)
251 to 253 °C | O=c1cc(CCN2CCC(c3c[nH]c4ccccc34)CC2)c2cc([N+](=O)[O-])ccc2[nH]1
96 to 98 °C | CCOC(=O)C1=C(COCCNCC(=O)OC)NC(C)=C(C(=O)OC)C1c1cccc(Cl)c1Cl (configuration not stated)
78 °C | Nc1ccc(O)c(N)c1
169 to 170 °C | CCOC(=O)CC[C@H](NC(=O)c1ccc(CCC2CNc3nc(NC(=O)C(C)(C)C)[nH]c(=O)c3C2)s1)C(=O)OCC (some centres not stated)
173 to 175 °C | Nc1ccc(S(=O)(=O)c2cc(Br)nc(N3CCNCC3)c2)cc1
190 to 193 °C | CC(=O)OCC1CCc2c(C3=C(c4cn(C)c5ccccc45)C(=O)OC3=O)c3ccccc3n2C1 (configuration not stated)
137 to 140 °C | N#Cc1cccnc1N1CCN(CC(=O)Nc2ccc(F)c(Cl)c2)CC1
148 to 149 °C | CCn1c2ccc3ccccc3c2c2cccc(C=O)c21
93 to 96 °C | O=C(Oc1cccc2ccccc12)c1ccc(CCl)cc1
136 to 137 °C | CCC(C(=O)NC)n1nnc2ccccc21 (configuration not stated)
206 to 208 °C | CN1Cc2c(C#N)ncn2-c2ccsc2C1=O
144 to 146 °C | CC(=O)NC1=NN(c2ccccc2)C(C)C1 (configuration not stated)
260 to 267 °C | COc1cc2ncnc(Nc3ccc4[nH]ccc4c3)c2cc1I
146 to 148 °C | N#CC(C#N)=Cc1ccc(OCc2ccccc2)cc1

melting point | Compound
138 °C | OCC12CC3CC(CC(C3)C1Br)C2 (configuration not stated)
112 to 114 °C | CCc1nc2c(cnn2CC)c(NC2CCOCC2)c1CNC(=O)c1cccc(C(=O)NCc2ccc(Cl)c(-c3cccc(CN4CCN(C)CC4)c3)c2)c1
93 to 94 °C | Nc1nc2ccccc2c2c1ncn2CCCCNC(=O)c1ccccc1Oc1ccccc1
100 to 102 °C | N#Cc1cc(F)c(-c2ncnc(C(F)F)c2Cl)cc1[N+](=O)[O-]
148 to 149 °C | COc1cc(OC)nc(Oc2ccc3[nH]c(C)c(C=O)c3c2C(=O)OCc2ccccc2)n1
93 to 95 °C | CC(C#Cc1cccc(Oc2ccsc2)c1)N(O)C(N)=O (configuration not stated)
145 to 147 °C | Cc1nc(C)c(Cl)c(NCc2nccc(SCCCSCCn3c([N+](=O)[O-])cnc3C)c2C)n1
121 to 122 °C | Cc1cc2c(c(C)c1N)C(c1ccc(C(C)C)cc1)CS2 (configuration not stated)
171 to 173 °C | COc1cc(COc2nn(-c3ccccc3)cc2/C=C/c2nc(N3CCOCC3)sc2C)ccc1OCc1nc(-c2ccc(CC(=O)O)cc2)oc1C
113 °C | CCOC(=O)COc1cc2c(c(Cl)c1Cl)C(=O)C(C)(C(C)C)C2 (configuration not stated)
80.5 °C | CCCCCCCc1ccc(-c2cnc(-c3ccc(OCCCCCC)c(F)c3)nc2)cc1
110 to 113 °C | Cc1nc(N2CCN(Cc3cccnc3)C2=O)sc1C(=O)NCc1ccccc1
70 to 72 °C | COC=C(C#C[Si](C)(C)C)C(=O)OC
93 to 96 °C | CCN1CCC(C2CCN(C(=O)OCc3ccccc3)CC2)CC1
122 to 123 °C | Cc1cc(CCCCCCCOc2ccc(C3=N[C@@H](C(C)C)CO3)cc2)on1
202 to 203 °C | O=C(CCN1CCNC1=O)N1CCC(C2c3ncc(Br)cc3CCc3cc(Cl)cc(Br)c32)CC1 (single isomer, unassigned; (+))
124 to 126 °C | COc1ccc(Cl)ccc1=O
230 to 233 °C | COc1cc(Nc2nc3cccc(-c4ccc(S(=O)(=O)N(C)C)cc4)c3o2)cc(OC)c1OC
116 °C | CC(=O)OC1CSC(Oc2cccc(-c3cc(C)ccn3)c2)C(OC(C)=O)C1OC(C)=O (configuration not stated)
133 to 134 °C | O=C(N[C@@H]1CCCC[C@H]1O)c1cnc(OCC(F)(F)F)c(-c2ccc(F)cc2)n1
122 to 124 °C | CCCCN(CCCC)c1ccc(N=O)cc1
83.6 °C | C[C@H](c1ccccc1)N1CCO[C@@H](c2ccc(C#N)cc2)C1
162 to 163 °C | CC(=O)NC(CCC(=O)c1c(F)cccc1F)c1ccc(Br)cc1 (configuration not stated)
155 °C | O=C1CCCCN1CCc1c[nH]c2ccc(Cl)cc12

melting point | Compound
225 to 227 °C | Cn1ncc2c1=CC1=CC=C(N)C(=O)C=21
87 to 88 °C | COC(=O)CC(NC(=O)C1CCCCC1)C(C)=O (configuration not stated)
95.5 to 96.5 °C | COc1cccc(C(O)CNCCc2ccc(OC)c(OC)c2Cl)c1 (configuration not stated)
187 to 188 °C | N#Cc1cc(-c2ncccc2C(=O)O)ccc1OCCc1ccccc1Cl
118 to 123 °C | O=C(Nc1ccc(Cl)c(Cl)c1)Oc1cccc(N=C=S)c1
112 to 114 °C | CC1(C)CC(=O)N(C(=O)Nc2ccccc2)CC(C)(C)N1O
218 °C | O=c1c2ccc([N+](=O)[O-])cc2nc(C(S)c2ncnc3[nH]cnc23)n1-c1ccccc1Cl (configuration not stated)
104 to 105 °C | O=Cc1ccc(C(O)c2cccnc2)cc1 (configuration not stated)
319 to 320 °C | Cc1c(C#N)c(O)cc2nc(Cc3ccccc3)nn12
75.3 °C | COC(=O)COc1ncccc1Oc1cc(N2C(=O)C=C(C(F)(F)F)CC2=O)c(F)cc1Cl
49 to 50 °C | CCSC1CC(=O)CC(SCC)C1(O)c1ccccc1 (configuration not stated)
165 to 167 °C | CC(C)c1ccc2c(c1)C(=O)CC21CNC(=O)C1 (configuration not stated)
55 °C | CCNc1nc(NCc2ccc(NC(=O)C3CCN(Cc4ccccc4)CC3)cc2)c2ccc(C)cc2n1
178 to 180 °C | CCN(CC)c1ccc(-c2ccc3c(c2)C=C(C(=O)Nc2ccc(CN(C)C4CCOCC4)cc2)CCN3C)cc1
218 to 221 °C | O=C(C=Cc1ccncc1)c1ccc([N+](=O)[O-])cc1
165 to 166 °C | NC(=O)c1c(Cl)cc(Cl)c(OCCCC(=O)O)c1Cl
113 to 115 °C | CCOC(=O)c1cnc2c(C)csc2c1Cl
231 to 233 °C | O=C(C=Cc1ccc(NC(=O)c2ccc3ccccc3c2)cc1)NO
138 °C | OC1CSC(Oc2cccc(-c3ccco3)c2)C(O)C1O (configuration not stated)
185 to 186 °C | Cc1nc(-c2ccc(CN3C(=O)C4(COc5cc6c(cc54)CCO6)c4ccccc43)cc2)no1 (configuration not stated)
188 to 189 °C | O=C1[C@H]2CCC[C@H]2N(C(=O)Cn2cnc3ccccc32)c2ccccc2N1Cc1ccccc1 (relative stereo)
53 to 55 °C | C=CCOC1CC(C)(C)N(c2nc(Cl)nc(Cl)n2)C(C)(C)C1
90 to 91 °C | CN(CCOc1cc(-c2ccc(O)cc2)nn1C)CCc1ccc(Cl)cc1
124 to 126 °C | CCOC(=O)CCc1cc(C(=O)CCCC(=O)O)ccc1OC

melting point | Compound
114 to 116 °C | CCOC(=O)N1CCC2(CC1)N=C(N)c1c(F)cccc1O2
172 °C | CCCCCC(=O)NC[C@H](O)CC(=O)NN
106 to 108 °C | CCCCCS(=O)(=O)NC(=O)/C=C/c1ccc(OCCO[Si](C(C)C)(C(C)C)C(C)C)cc1Oc1ncc(C(F)(F)F)cc1Cl
232 to 235 °C | COc1ccc(-c2nn(C(C)c3oc4ccccc4c(=O)c3-c3cccc(F)c3)c3ncnc(N)c23)cc1OC (configuration not stated)
142 to 150 °C | COCCNC(=O)c1cccc(NC(=O)Oc2ccccc2)c1
80 to 81 °C | CCOC(=O)CCc1cn(Cc2ccc(OCc3coc(-c4ccccc4)n3)cc2)nc1OCC
144 to 146 °C | CC(C)(C)OC(=O)NCc1nnc(S)s1
217 to 218 °C | O=C(Cc1c(-c2ccccc2)c2cc3c(cc2oc1=O)C=CC3)Nc1ccc(F)cc1C(F)(F)F
56 to 57 °C | CCCCCCCCCCCCNC(=O)n1nc(Oc2ncc(C(F)(F)F)cc2Cl)cc1C
> 300 °C | O=c1cc(-c2cccc(OP(=O)(O)O)c2)[nH]c2ccc(N3CCCC3)cc12
132 to 134 °C | NC(=O)N(O)Cc1sccc1Oc1ccccc1
256 to 258 °C | Cc1ccnc2c([N+](=O)[O-])cc(Cc3cnc(N)nc3N)cc12
79.5 to 83 °C | Cc1cc(C=O)ccc1C(=O)NCc1ccccn1
128 to 129 °C | COc1ccc(-c2nn(C(C)C)c3c(C(F)(F)F)cccc23)c(OC)c1
118 to 120 °C | CC(Oc1ccc([N+](=O)[O-])cc1)C(=O)OCCOC(=O)C(C)Oc1ccc([N+](=O)[O-])cc1 (configuration not stated)
171 to 172 °C | Clc1cccc2c(CN3CC=C(CCc4ccccc4)CC3)n[nH]c12
200 to 202 °C | COc1cc(Nc2c(C#N)cnc3cc(Br)ccc23)c(Cl)cc1F
152 to 153 °C | CCCn1cc(NC(=O)C(N)c2ccc3c(c2)C(C)(C)CCC3(C)C)cc1C(=O)OC (configuration not stated)
261 °C | CCOC(=O)c1c(-c2cccc(Cl)c2)c2cc(C(=O)c3nc(-c4ccccc4)cs3)ccc2[nH]c1=O
120 to 125 °C | Cc1ccc(S(=O)(=O)N2CC(NC(=O)c3ccccc3)CC2C(=O)O)cc1 (configuration not stated)
120 to 121 °C | O=c1oc(-c2ccc(Sc3ccccc3)cc2)cc(O)c1SCCc1ccccc1

Compound | melting point
CCOC(=O)CCN1C(=O)C(NC(=O)Nc2ccc(Cl)cc2)N=C(c2ccccc2)c2ccccc21 (configuration not stated) | 251 to 253 °C
OC(c1ccc(F)cc1)(c1ccc(F)cc1)C1CCNCC1 | 160 °C
COc1ccc2c(c1OC)CCC2c1c[nH]cn1 (configuration not stated) | 156 to 158 °C
Fc1ccc2c(C3=CCN(CC4COc5ccc6[nH]c(C(F)(F)F)nc6c5O4)CC3)c[nH]c2c1 (configuration not stated) | 215 to 220 °C
